These results are taken from EP4617278A1, “NUCLEOTIDE ANALOG, AND COMPOSITION AND USE THEREOF” (priority 2022, dated 2024).

The EC50 is the concentration giving half of the maximal effect.

For the assay, the system named is SARS-CoV-2 replicon. It counts as cell-based. The following applies: read-out: SARS-CoV-2 Replicon (Huh-7cell) EC50.
As to `CCC(=O)O[C@H]1[C@@H](OC(=O)CC)[C@](C#N)(c2ccc3c(N)ncnn23)O[C@@H]1CO[P@](=O)(OCOC(=O)OC(C)C)Oc1ccc(C(C)(C)C)cc1` [Compound 23a, (2R,3R,4R,5R)-2-(4-aminopyrrolo[2,1-f][1,2,4]triazin-7-yl)-5-((((S)-(4-tert-butylphenoxy)(((isopropoxycarbonyl)oxy)methoxy)phosphoryl)oxy)methyl)-2-cyanotetrahydrofuran-3,4-diyl dipropionate], the EC50 was under 5 nM.
In the case of `CC(C)C(=O)O[C@H]1[C@@H](OC(=O)C(C)C)[C@](C#N)(c2ccc3c(N)ncnn23)O[C@@H]1CO[P@](=O)(N[C@@H](CC(=O)OC1CCC1)C(=O)OC1CCC1)Oc1ccccc1` [Compound 54a, (2R,3R,4R,5R)-2-(4-aminopyrrolo[2,1-f][1,2,4]triazin-7-yl)-2-cyano-5-((((R)-(((S)-1,4-dicyclobutoxy-1,4-dioxobutan-2-yl)amino)(phenoxy)phosphoryl)oxy)methyl)tetrahydrofuran-3,4-diyl bis(2-methylpropionate)] it was 10 to 50 nM; in that of `CC(C)C(=O)OCO[P@@](=O)(OC[C@H]1O[C@@](C#N)(c2ccc3c(N)ncnn23)[C@H](OC(=O)C(C)C)[C@@H]1OC(=O)C(C)C)Oc1ccc(C(C)(C)C)cc1` [Compound 26a, (2R,3R,4R,5R)-2-(4-aminopyrrolo[2,1-f][1,2,4]triazin-7-yl)-5-((((S)-(4-tert-butylphenoxy)((isobutyryloxy)methoxy)phosphoryl)oxy)methyl)-2-cyanotetrahydrofuran-3,4-diyl bis(2-methylpropionate)], 5 to 10 nM; in that of `CCC(CC)COC(=O)C1(N[P@@](=O)(OCOC(=O)OC(C)C)OC[C@H]2O[C@@](C#N)(c3ccc4c(N)ncnn34)[C@H](OC(=O)C(C)C)[C@@H]2OC(=O)C(C)C)CCC1` [Compound 32b, (2R,3R,4R,5R)-2-(4-aminopyrrolo[2,1-f][1,2,4]triazin-7-yl)-2-cyano-5-((((S)-((1-((2-ethylbutoxy)carbonyl)cyclobutyl)amino)(((isopropoxycarbonyl)oxy)methoxy)phosphoryl)oxy)methyl)tetrahydrofuran-3,4-diyl bis(2-methylpropionate)], 10 to 50 nM.
Take `CC(=O)O[C@H]1[C@@H](OC(C)=O)[C@](C#N)(c2ccc3c(N)ncnn23)O[C@@H]1COP(=O)(OCOC(=O)OC(C)C)OCOC(=O)OC(C)C` [Compound 17, (2R,3R,4R,5R)-2-(4-aminopyrrolo[2,1-f][1,2,4]triazin-7-yl)-5-((((bis(((isopropoxycarbonyl)oxy)methoxy)phosphoryl))oxy)methyl)-2-cyanotetrahydrofuran-3,4-diyl diacetate]: the EC50 is under 5 nM.
As for `CCC(=O)O[C@H]1[C@@H](OC(=O)CC)[C@](C#N)(c2ccc3c(N)ncnn23)O[C@@H]1CO[P@](=O)(N[C@@H](C)C(=O)OCC(CC)CC)OCOC(=O)C(C)(C)C` [Compound 10a, (2R,3R,4R,5R)-2-(4-aminopyrrolo[2,1-f][1,2,4]triazin-7-yl)-2-cyano-5-((((R)-(((S)-1-(2-ethylbutoxy)-1-oxopropan-2-yl)amino)((pivaloyloxy)methoxy)phosphoryl)oxy)methyl)tetrahydrofuran-3,4-diyl dipropionate], the figure is 10 to 50 nM.
For `CCCCC/C=C\C/C=C\CCCCCCCCOC(=O)[C@H](C)N[P@@](=O)(OCOC(=O)OC(C)C)OC[C@H]1O[C@@](C#N)(c2ccc3c(N)ncnn23)[C@H](OC(=O)C(C)C)[C@@H]1OC(=O)C(C)C` [Compound 52b, (2R,3R,4R,5R)-2-(4-aminopyrrolo[2,1-f][1,2,4]triazin-7-yl)-2-cyano-5-((((S)-(((isopropoxycarbonyl)oxy)methoxy)(((S)-1-(((9Z,12Z)-octadeca-9,12-dien-1-yl)oxy)-1-oxopropan-2-yl)amino)phosphoryl)oxy)methyl)tetrahydrofuran-3,4-diyl bis(2-methylpropionate)], the EC50 lay within 50 to 500 nM.
In the case of `CCC(CC)COC(=O)C1(N[P@@](=O)(OC[C@H]2O[C@@](C#N)(c3ccc4c(N)ncnn34)[C@H](OC(=O)C(C)C)[C@@H]2OC(=O)C(C)C)Oc2ccccc2)CCC1` [Compound 40a, (2R,3R,4R,5R)-2-(4-aminopyrrolo[2,1-f][1,2,4]triazin-7-yl)-2-cyano-5-((((R)-((1-((2-ethylbutoxy)carbonyl)cyclobutyl)amino)(phenoxy)phosphoryl)oxy)methyl)tetrahydrofura n-3,4-diyl bis(2-methylpropionate)] it was 10 to 50 nM; in that of `CCC(=O)O[C@H]1[C@@H](OC(=O)CC)[C@](C#N)(c2ccc3c(N)ncnn23)O[C@@H]1CO[P@](=O)(N[C@@H](C)C(=O)OCC(CC)CC)OCOC(=O)OC(C)C` [Compound 6a, (2R,3R,4R,5R)-2-(4-aminopyrrolo[2,1-f][1,2,4]triazin-7-yl)-2-cyano-5-((((R)-(((S)-1-(2-ethylbutoxy)-1-oxopropan-2-yl)amino)(((isopropoxycarbonyl)oxy)methoxy)phosphoryl)oxy)methyl)tetrahydrofuran-3,4-diyl dipropionate], 5 to 10 nM.
For the compound `CCC(CC)COC(=O)[C@H](Cc1ccccc1)N[P@@](=O)(OC[C@H]1O[C@@](C#N)(c2ccc3c(N)ncnn23)[C@H](OC(=O)C(C)C)[C@@H]1OC(=O)C(C)C)Oc1ccc(C(C)(C)C)cc1` [Compound 53a, (2R,3R,4R,5R)-2-(4-aminopyrrolo[2,1-f][1,2,4]triazin-7-yl)-2-cyano-5-((((((S)-1-(2-ethylbutoxy)-1-oxo-3-phenylpropan-2-yl)amino)((R)-4-tert-butylphenoxy)phosphoryl)oxy)methyl)tetrahydrofuran-3,4-diyl bis(2-methylpropionate)], the EC50 lay in the range of 50 to 500 nM.
As for `CCCCCOC(=O)C[C@H](N[P@@](=O)(OC[C@H]1O[C@@](C#N)(c2ccc3c(N)ncnn23)[C@H](OC(=O)C(C)C)[C@@H]1OC(=O)C(C)C)Oc1ccc(C(C)(C)C)cc1)C(=O)OCCCCC` [Compound 39a, (2R,3R,4R,5R)-2-(4-aminopyrrolo[2,1-f][1,2,4]triazin-7-yl)-2-cyano-5-((((R)-(((S)-1,4-dipentyloxy-1,4-dioxobutan-2-yl)amino)(4-tert-butylphenoxy)phosphoryl)oxy)methyl)tetrahydrofuran-3,4-diyl bis(2-methylpropionate)], the figure is 50 to 500 nM.
Take `CCC(=O)O[C@H]1[C@@H](OC(=O)CC)[C@](C#N)(c2ccc3c(N)ncnn23)O[C@@H]1CO[P@@](=O)(N[C@@H](C)C(=O)OC(C)C)OCOC(=O)OC(C)C` [Compound 2b, (2R,3R,4R,5R)-2-(4-aminopyrrolo[2,1-f][1,2,4]triazin-7-yl)-2-cyano-5-((((S)-(((S)-1-isopropoxy-1-oxopropan-2-yl)amino)(((isopropoxycarbonyl)oxy)methoxy)phosphoryl)oxy)methyl)tetrahydrofuran-3,4-diyl dipropionate]: the EC50 was at most 5 nM.
In the case of `CC(C)OC(=O)OCO[P@@](=O)(N[C@@H](C)C(=O)OC1CCC1)OC[C@H]1O[C@@](C#N)(c2ccc3c(N)ncnn23)[C@H](OC(=O)C(C)C)[C@@H]1OC(=O)C(C)C` [Compound 13a, (2R,3R,4R,5R)-2-(4-aminopyrrolo[2,1-f][1,2,4]triazin-7-yl)-2-cyano-5-((((R)-(((S)-1-cyclobutoxy-1-oxopropan-2-yl)amino)(((isopropoxycarbonyl)oxy)methoxy)phosphoryl)oxy)methyl)tetrahydrofuran-3,4-diyl bis(2-methylpropionate)] it was under 5 nM; in that of `CC(=O)OCO[P@](=O)(OC[C@H]1O[C@@](C#N)(c2ccc3c(N)ncnn23)[C@H](OC(=O)C(C)C)[C@@H]1OC(=O)C(C)C)Oc1ccc(C(C)(C)C)cc1` [Compound 43b, (2R,3R,4R,5R)-2-(4-aminopyrrolo[2,1-f][1,2,4]triazin-7-yl)-5-(((((R)-acetoxylmethoxy)(4-tert-butylphenoxy)phosphoryl)oxy)methyl)-2-cyanotetrahydrofuran-3,4-diyl bis(2-methylpropionate)], 5 to 10 nM; in that of “(2R,3R,4R,5R)-2-(4-aminopyrrolo[2,1-f][1,2,4]triazin-7-yl)-2-cyano-5-((((S)-(((S)-1-(2-ethylbutoxy)-1-oxopropan-2-yl)amino)(((isopropoxycarbonyl)oxy)methoxy)phosphoryl)oxy)methyl)tetrahydrofuran-3,4-diyl diacetate [Compound 5b]”, 5 to 10 nM.
In the case of `CC(C)C(=O)O[C@H]1[C@@H](OC(=O)C(C)C)[C@](C#N)(c2ccc3c(N)ncnn23)O[C@@H]1COP(=O)(OCCSC(=O)C(C)(C)C)OCCSC(=O)C(C)(C)C` [Compound 30, (2R,3R,4R,5R)-2-(4-aminopyrrolo[2,1-f][1,2,4]triazin-7-yl)-5-((((bis(2-(pivaloylthio)ethoxy))phosphoryl)oxy)methyl)-2-cyanotetrahydrofuran-3,4-diyl bis(2-methylpropionate)] it was under 5 nM.
As for `CCCCCCCCCCCCOC(=O)[C@H](C)N[P@](=O)(OC[C@H]1O[C@@](C#N)(c2ccc3c(N)ncnn23)[C@H](OC(=O)C(C)C)[C@@H]1OC(=O)C(C)C)Oc1ccccc1` [Compound 46b, (2R,3R,4R,5R)-2-(4-aminopyrrolo[2,1-f][1,2,4]triazin-7-yl)-2-cyano-5-((((S)-(((S)-1-(dodecyloxy)-1-oxopropan-2-yl)amino)(phenoxy)phosphoryl)oxy)methyl)tetrahydrofuran-3,4-diyl bis(2-methylpropionate)], the EC50 lay within 50 to 500 nM.
